From ChEMBL document CHEMBL1201862, “PubChem BioAssay data set” (2004)
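Where inhibition never reached the appropriate level, the endpoint shown equals the highest concentration tested. Otherwise, values were interpolated linearly from a five-concentration, 48-hour dose response in 96-well plates. GI50 is the concentration that inhibits growth by half.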 Activity calls are given as the source filed them. No stated cut-off is given here; in the data, active = GI50 up to about 1.1 µM and inactive = higher.

Key:
Assay in all cases: NCI-60 cell line screen, 48 h
[1] = tested on: SF-268
[2] = tested on: OVCAR-8
[3] = tested on: OVCAR-3
[4] = tested on: SK-MEL-28
[5] = tested on: M14
[6] = tested on: MCF7
[7] = tested on: HCT-15
[8] = tested on: PC-3
[9] = tested on: MDA-MB-435
[10] = tested on: Malme-3M
[11] = tested on: CAKI-1
[12] = tested on: 786-0
[13] = tested on: SN12C
[14] = tested on: HOP-92
[15] = tested on: UO-31
[16] = tested on: BT-549
[17] = tested on: MDA-MB-231
[18] = tested on: NCI-H460
[19] = tested on: CCRF-CEM
[20] = tested on: SF-539

Row | SMILES | GI50 [1] | GI50 [2] | GI50 [3] | GI50 [4] | GI50 [5] | GI50 [6] | GI50 [7] | GI50 [8] | GI50 [9] | GI50 [10] | GI50 [11] | GI50 [12] | GI50 [13] | GI50 [14] | GI50 [15] | GI50 [16] | GI50 [17] | GI50 [18] | GI50 [19] | GI50 [20]
1 | CCCCOC(=O)C1CC[C@H]2[C@@H]3CCc4cc(OC(=O)c5cccc6c(=O)c7ccccc7[nH]c56)ccc4[C@H]3CC[C@]12C (stereo partly drawn) | 9.44 µM (inactive) | 10.7 µM (inactive) | 8.47 µM (inactive) | 11 µM (inactive) | 11.3 µM (inactive) | 13.3 µM (inactive) | 6.98 µM | 8.71 µM (inactive) | 8.63 µM (inactive) | 10.9 µM (inactive) | 7.19 µM (inactive) | 9.89 µM (inactive) | 8.45 µM (inactive) | 8.3 µM (inactive) | 8.17 µM (inactive) | 8.17 µM (inactive) | 6.98 µM (inactive) |  |  | 
2 | CC(C)(C)c1ccc(C(O)(c2ccc(C(C)(C)C)cc2)c2ccc(C(C)(C)C)cc2)cc1 | > 100 µM (inactive) | > 100 µM (inactive) | > 100 µM (inactive) | > 100 µM (inactive) | > 100 µM (inactive) | > 100 µM (inactive) | > 100 µM | > 100 µM (inactive) | > 100 µM (inactive) | 6.92 µM (inactive) | > 100 µM (inactive) | > 100 µM (inactive) | > 100 µM (inactive) |  | > 100 µM (inactive) | > 100 µM (inactive) | > 100 µM (inactive) | > 100 µM (inactive) | > 100 µM (inactive) | > 100 µM (inactive)
3 | CN(C)Cc1cc(C(=O)/C=C/c2c(F)cccc2Cl)cc(CN(C)C)c1O | 10.1 µM (inactive) | 12.4 µM (inactive) | 9.18 µM (inactive) | 14.5 µM (inactive) | 13.2 µM (inactive) | 3.03 µM (inactive) | 4.34 µM | 13.7 µM (inactive) | 13.8 µM (inactive) | 11.8 µM (inactive) | 11.5 µM (inactive) | 5.61 µM (inactive) | 4.57 µM (inactive) | 7.52 µM (inactive) | 3.7 µM (inactive) | 8.2 µM (inactive) | 13.1 µM (inactive) | 2.37 µM (inactive) | 5.13 µM (inactive) | 
4 | O=C1CC(c2ccc[nH]2)=NN1c1ccccc1 | > 100 µM (inactive) | > 100 µM (inactive) | > 100 µM (inactive) | > 100 µM (inactive) | > 100 µM (inactive) |  | > 100 µM | > 100 µM (inactive) | > 100 µM (inactive) | > 100 µM (inactive) | > 100 µM (inactive) | > 100 µM (inactive) | > 100 µM (inactive) | > 100 µM (inactive) | > 100 µM (inactive) | > 100 µM (inactive) | > 100 µM (inactive) | > 100 µM (inactive) | 88.5 µM (inactive) | > 100 µM (inactive)
5 | Fc1cc(C2=Nn3c(CNc4ccc(Cl)cc4)nnc3S/C2=C\c2ccc(-c3ccc(Cl)cc3)o2)c(Cl)cc1Cl | 53.2 µM (inactive) | 51.1 µM (inactive) | 29.6 µM (inactive) | 67 µM (inactive) | 53.3 µM (inactive) | 38.8 µM (inactive) | > 100 µM | 14.9 µM (inactive) | 68.5 µM (inactive) | 17.3 µM (inactive) | 23.6 µM (inactive) | 32.3 µM (inactive) | 33.3 µM (inactive) |  | 11.8 µM (inactive) | > 100 µM (inactive) | 10.2 µM (inactive) | 65.3 µM (inactive) | 67.1 µM (inactive) | 
6 | COP(=O)(O)/C=C/C(NC(=O)C(Cl)(Cl)Cl)c1ccccc1 (stereo not drawn) | > 100 µM (inactive) | > 100 µM (inactive) | > 100 µM (inactive) | > 100 µM (inactive) | > 100 µM (inactive) | > 100 µM (inactive) | > 100 µM | > 100 µM (inactive) | > 100 µM (inactive) | > 100 µM (inactive) | > 100 µM (inactive) | > 100 µM (inactive) | > 100 µM (inactive) | > 100 µM (inactive) | > 100 µM (inactive) | > 100 µM (inactive) | > 100 µM (inactive) | > 100 µM (inactive) |  | 
7 | CSC[C@H](NC(=O)COc1cccc2cnccc12)C(=O)NC(Cc1ccccc1)C(O)C(=O)N1CSC[C@H]1C(=O)NC(C)(C)C (stereo partly drawn) | 16.9 µM (inactive) | 78.3 µM (inactive) | 69.8 µM (inactive) | 78.2 µM (inactive) | 78.2 µM (inactive) | 68.2 µM (inactive) | > 100 µM | 24 µM (inactive) | 87.5 µM (inactive) | > 100 µM (inactive) |  | 44.5 µM (inactive) | 84.7 µM (inactive) |  | 86.3 µM (inactive) | > 100 µM (inactive) | > 100 µM (inactive) | 38.9 µM (inactive) | 26.5 µM (inactive) | 11 µM (inactive)
8 | COc1cccc2c1C(=O)c1c(O)c3c(c(O)c1C2=O)C[C@@](O)(C(C)=O)C[C@@H]3OC1CC(O)C(O)C(C)O1 (stereo partly drawn) | 1.08 µM (active) | 1.3 µM (inactive) | 3.69 µM (inactive) | 6.08 µM (inactive) | 4.8 µM (inactive) |  | 1.43 µM | 4.95 µM (inactive) | 8.95 µM (inactive) | 0.000916 µM (active) | 0.789 µM (active) | 1.57 µM (inactive) | 0.675 µM (active) | 2.1 µM (inactive) | 1.66 µM (inactive) | 3.33 µM (inactive) | 8.65 µM (inactive) | 0.124 µM (active) | 0.0902 µM (active) | 0.9 µM (active)
9 | Cn1c2n/c(=N\c3ccc(Cl)cc3)[n+]3ccc4ccccc4c3c-2c([O-])n1-c1ccccc1 | > 100 µM (inactive) | > 100 µM (inactive) | > 100 µM (inactive) | > 100 µM (inactive) |  | > 100 µM (inactive) | > 100 µM | > 100 µM (inactive) | > 100 µM (inactive) | > 100 µM (inactive) | 46.3 µM (inactive) | > 100 µM (inactive) | > 100 µM (inactive) |  | > 100 µM (inactive) | > 100 µM (inactive) | > 100 µM (inactive) | > 100 µM (inactive) |  | 
10 | O=C(O)c1cc(/C=C/c2cc(O)ccc2O)ccc1O | > 10 µM (inactive) | > 10 µM (inactive) | > 10 µM (inactive) |  | > 10 µM (inactive) | 3.91 µM (inactive) | > 10 µM | > 10 µM (inactive) | > 10 µM (inactive) | > 10 µM (inactive) |  | > 10 µM (inactive) | > 10 µM (inactive) |  | > 10 µM (inactive) | > 10 µM (inactive) | > 10 µM (inactive) | > 10 µM (inactive) | > 10 µM (inactive) | > 10 µM (inactive)
11 | COc1ccc(-c2nc(-c3cnccn3)n(C/C=C/c3ccccc3)n2)cc1 |  | 47.9 µM (inactive) | 40.4 µM (inactive) | 35.2 µM (inactive) | > 100 µM (inactive) | > 100 µM (inactive) | > 100 µM | > 100 µM (inactive) | > 100 µM (inactive) |  |  | 17.3 µM (inactive) | > 100 µM (inactive) | 11.5 µM (inactive) | 49.2 µM (inactive) | 40.7 µM (inactive) | 71.1 µM (inactive) | > 100 µM (inactive) | > 100 µM (inactive) | 26.5 µM (inactive)
12 | NCc1ccc(O)c(O)c1 |  | > 100 µM (inactive) | 55.8 µM (inactive) | > 100 µM (inactive) | > 100 µM (inactive) | > 100 µM (inactive) | > 100 µM | > 100 µM (inactive) | > 100 µM (inactive) |  | > 100 µM (inactive) | > 100 µM (inactive) | > 100 µM (inactive) | > 100 µM (inactive) | > 100 µM (inactive) | > 100 µM (inactive) | > 100 µM (inactive) | > 100 µM (inactive) | 53 µM (inactive) | > 100 µM (inactive)
13 | CC(C)C(C(=O)O)N1C(=O)c2ccccc2C1=O (stereo not drawn) | > 100 µM (inactive) | > 100 µM (inactive) | > 100 µM (inactive) | > 100 µM (inactive) | > 100 µM (inactive) | > 100 µM (inactive) | > 100 µM | > 100 µM (inactive) | > 100 µM (inactive) | > 100 µM (inactive) | > 100 µM (inactive) | > 100 µM (inactive) | > 100 µM (inactive) | > 100 µM (inactive) |  | > 100 µM (inactive) | > 100 µM (inactive) | > 100 µM (inactive) | > 100 µM (inactive) | 
14 | O=C(CCCCCC(=O)N1CC(CCl)c2ccc([N+](=O)[O-])cc21)N1CC(CCl)c2ccc([N+](=O)[O-])cc21 (stereo not drawn) | > 100 µM (inactive) | > 100 µM (inactive) | > 100 µM (inactive) |  | > 100 µM (inactive) | 36.9 µM (inactive) | > 100 µM | > 100 µM (inactive) | > 100 µM (inactive) |  | > 100 µM (inactive) | > 100 µM (inactive) | > 100 µM (inactive) | > 100 µM (inactive) | > 100 µM (inactive) | > 100 µM (inactive) | > 100 µM (inactive) | 34 µM (inactive) | 91.4 µM (inactive) | > 100 µM (inactive)
15 | O=C1CC(C(CC(=O)c2ccccc2)c2ccccc2)C(=O)c2ccccc2N1 (stereo not drawn) | 53.6 µM (inactive) | 27.8 µM (inactive) | 28.4 µM (inactive) |  | 33.7 µM (inactive) | 25.9 µM (inactive) | 33.8 µM | 25.5 µM (inactive) | 50.1 µM (inactive) | 28.4 µM (inactive) |  | > 100 µM (inactive) | 35.7 µM (inactive) |  | 14.2 µM (inactive) | 29.1 µM (inactive) | 49 µM (inactive) | 33.3 µM (inactive) | 25.9 µM (inactive) | 38.3 µM (inactive)
